{
  "source": "ChEMBL document CHEMBL1914415",
  "about": "“A sucrose-derived scaffold for multimerization of bioactive peptides” (Bioorg Med Chem, 2011)",
  "key": {"[1]": {"molecular_target": "Melanocortin receptor 4 (Homo sapiens) (UniProt P32245)", "sequence (P32245 whole entry)": "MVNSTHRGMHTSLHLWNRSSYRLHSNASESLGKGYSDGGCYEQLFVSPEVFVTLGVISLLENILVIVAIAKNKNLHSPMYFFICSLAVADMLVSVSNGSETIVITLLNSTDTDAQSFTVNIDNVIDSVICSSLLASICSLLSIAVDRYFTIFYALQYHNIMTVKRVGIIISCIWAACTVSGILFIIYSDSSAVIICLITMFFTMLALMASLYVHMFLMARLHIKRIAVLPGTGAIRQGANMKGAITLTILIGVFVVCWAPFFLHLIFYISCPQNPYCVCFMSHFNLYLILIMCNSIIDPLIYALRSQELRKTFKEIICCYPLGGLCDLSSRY", "test": "Displacement of Eu-DTAP-NDP-alpha-MSH-NH2 from MC4 receptor expressed in human HEK293 cells at 10^-5 to 10^-12 M after 1 hr by time resolved fluorescence method", "assay_type": "cell-based"}, "[2]": {"molecular_target": "T1, Gastrin/cholecystokinin type B receptor (Homo sapiens) (UniProt P32239)", "T1 sequence (whole entry)": "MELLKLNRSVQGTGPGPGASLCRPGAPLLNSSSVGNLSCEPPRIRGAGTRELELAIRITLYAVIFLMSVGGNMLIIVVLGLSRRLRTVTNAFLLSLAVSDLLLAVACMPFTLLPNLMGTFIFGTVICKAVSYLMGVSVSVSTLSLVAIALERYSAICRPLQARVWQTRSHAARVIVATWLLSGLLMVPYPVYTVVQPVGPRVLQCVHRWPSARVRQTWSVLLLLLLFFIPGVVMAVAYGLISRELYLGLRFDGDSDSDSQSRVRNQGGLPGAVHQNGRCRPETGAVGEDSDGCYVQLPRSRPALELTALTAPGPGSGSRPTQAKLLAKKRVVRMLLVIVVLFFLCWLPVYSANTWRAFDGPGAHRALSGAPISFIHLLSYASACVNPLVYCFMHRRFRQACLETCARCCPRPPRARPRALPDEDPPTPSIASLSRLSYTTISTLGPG", "test": "Displacement of Eu-DTAP-CCK8-NH2 from CCK2 receptor expressed in human HEK293 cells at 10^-5 to 10^-12 M after 1 hr by time resolved fluorescence method", "assay_type": "cell-based"}},
  "note": "The source made the active and inactive calls. The rule behind the calls is not given here.",
  "data": [
    {"smiles": "NC(=O)[C@H](CO)NC(=O)CCCCCn1cc(CCCCOC[C@H]2O[C@@](COCCCCc3cn(CCCCCC(=O)N[C@@H](CO)C(N)=O)nn3)(O[C@H]3O[C@H](COCCCCc4cn(CCCCCC(=O)N[C@@H](CO)C(N)=O)nn4)[C@@H](OCCCCc4cn(CCCCCC(=O)N[C@@H](CO)C(N)=O)nn4)[C@H](OCCCCc4cn(CCCCCC(=O)N[C@@H](CO)C(N)=O)nn4)[C@H]3OCCCCc3cn(CCCCCC(=O)N[C@@H](CO)C(N)=O)nn3)[C@@H](OCCCCc3cn(CCCCCC(=O)N[C@@H](CO)C(N)=O)nn3)[C@@H]2OCCCCc2cn(CCCCCC(=O)N[C@@H](CO)C(N)=O)nn2)nn1", "values": [
      {"measurement": "Activity", "setting": "[1]", "result": "inactive"},
      {"measurement": "Activity", "setting": "[2]", "result": "inactive"}
    ]}
  ]
}
